Test results from ChEMBL document CHEMBL1155954, “A concise approach to 1,11-didechloro-6-methyl-4'-O-demethyl rebeccamycin and its binding to human serum albumin: fluorescence spectroscopy and molecular modeling method” (Bioorg Med Chem, 2008).

Experiments:
Albumin [1] = biological target: T1, Albumin (Homo sapiens, UniProt P02768); test: Binding affinity to human serum albumin at 289 kelvin by fluorescence quenching measurement in presence of Hg2+ ions; assay type: ADME; details: isolated protein
Albumin [2] = biological target: T1, Albumin; test: Binding affinity to human serum albumin at 289 kelvin by fluorescence quenching measurement in presence of Bi3+ ions; assay type: ADME; details: isolated protein
Albumin [3] = biological target: T1, Albumin; test: Binding affinity to human serum albumin at 289 kelvin by fluorescence quenching measurement in presence of [CO3]2- ions; assay type: ADME; details: isolated protein
Albumin [4] = biological target: T1, Albumin; test: Binding affinity to human serum albumin at 289 kelvin by fluorescence quenching measurement in presence of Ca2+ ions; assay type: ADME; details: isolated protein
Albumin [5] = biological target: T1, Albumin; test: Binding affinity to human serum albumin at 299 kelvin by fluorescence quenching measurement; assay type: ADME; details: isolated protein
Albumin [6] = biological target: T1, Albumin; test: Binding affinity to human serum albumin at 289 kelvin by fluorescence quenching measurement in presence of Pb2+ ions; assay type: ADME; details: isolated protein
Albumin [7] = biological target: T1, Albumin; test: Binding affinity to human serum albumin at 289 kelvin by fluorescence quenching measurement in presence of [NO3]- ions; assay type: ADME; details: isolated protein
Albumin [8] = biological target: T1, Albumin; test: Binding affinity to human serum albumin at 289 kelvin by fluorescence quenching measurement; assay type: ADME; details: isolated protein
Albumin [9] = biological target: T1, Albumin; test: Binding affinity to human serum albumin at 289 kelvin by fluorescence quenching measurement in presence of Mg2+ ions; assay type: ADME; details: isolated protein
Albumin [10] = biological target: T1, Albumin; test: Binding affinity to human serum albumin at 289 kelvin by fluorescence quenching measurement in presence of Zn2+ ions; assay type: ADME; details: isolated protein
Albumin [11] = biological target: T1, Albumin; test: Binding affinity to human serum albumin at 289 kelvin by fluorescence quenching measurement in presence of Cd2+ ions; assay type: ADME; details: isolated protein
Albumin [12] = biological target: T1, Albumin; test: Binding affinity to human serum albumin at 289 kelvin by fluorescence quenching measurement in presence of Fe3+ ions; assay type: ADME; details: isolated protein
Albumin [13] = biological target: T1, Albumin; test: Binding affinity to human serum albumin at 289 kelvin by fluorescence quenching measurement in presence of [SO4]2- ions; assay type: ADME; details: isolated protein
Albumin [14] = biological target: T1, Albumin; test: Binding affinity to human serum albumin at 289 kelvin by fluorescence quenching measurement in presence of [Sio3]2- ions; assay type: ADME; details: isolated protein
Albumin [15] = biological target: T1, Albumin; test: Binding affinity to human serum albumin at 289 kelvin by fluorescence quenching measurement in presence of K+ ions; assay type: ADME; details: isolated protein
Albumin [16] = biological target: T1, Albumin; test: Binding affinity to human serum albumin at 289 kelvin by fluorescence quenching measurement in presence of F- ions; assay type: ADME; details: isolated protein
Albumin [17] = biological target: T1, Albumin; test: Binding affinity to human serum albumin at 289 kelvin by fluorescence quenching measurement in presence of Al3+ ions; assay type: ADME; details: isolated protein
Albumin [18] = biological target: T1, Albumin; test: Binding affinity to human serum albumin at 309 kelvin by fluorescence quenching measurement; assay type: ADME; details: isolated protein
Albumin [19] = biological target: T1, Albumin; test: Binding affinity to human serum albumin at 289 kelvin by fluorescence quenching measurement in presence of Ni2+ ions; assay type: ADME; details: isolated protein
K562 = test: Anticancer activity against human K562 cells; assay type: functional, cell-based

T1 sequence (P02768 whole entry): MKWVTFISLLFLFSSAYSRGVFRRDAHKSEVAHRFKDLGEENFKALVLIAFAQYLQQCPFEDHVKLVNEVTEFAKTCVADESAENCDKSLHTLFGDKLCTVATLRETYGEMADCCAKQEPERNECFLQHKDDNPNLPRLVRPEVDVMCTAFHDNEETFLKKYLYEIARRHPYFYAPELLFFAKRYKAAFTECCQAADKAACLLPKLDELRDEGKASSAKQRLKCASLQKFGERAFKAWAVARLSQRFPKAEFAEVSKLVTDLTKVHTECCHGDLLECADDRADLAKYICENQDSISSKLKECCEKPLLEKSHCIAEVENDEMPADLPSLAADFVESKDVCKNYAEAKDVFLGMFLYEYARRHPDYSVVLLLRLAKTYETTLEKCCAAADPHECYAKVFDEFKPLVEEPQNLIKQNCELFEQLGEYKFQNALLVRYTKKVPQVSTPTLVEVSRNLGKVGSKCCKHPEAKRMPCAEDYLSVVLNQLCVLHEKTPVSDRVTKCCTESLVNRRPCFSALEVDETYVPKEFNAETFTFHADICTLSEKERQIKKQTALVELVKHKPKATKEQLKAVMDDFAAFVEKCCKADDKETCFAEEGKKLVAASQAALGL

| K (Albumin [1]) | K (Albumin [2]) | K (Albumin [3]) | K (Albumin [4]) | K (Albumin [5]) | K (Albumin [6]) | K (Albumin [7]) | K (Albumin [8]) | K (Albumin [9]) | K (Albumin [10]) | K (Albumin [11]) | K (Albumin [12]) | K (Albumin [13]) | K (Albumin [14]) | K (Albumin [15]) | K (Albumin [16]) | K (Albumin [17]) | K (Albumin [18]) | K (Albumin [19]) | IC50 (K562) | Compound |
| --- | --- | --- | --- | --- | --- | --- | --- | --- | --- | --- | --- | --- | --- | --- | --- | --- | --- | --- | --- | --- |
| 8.41 ×10⁶ L/mol | 7.01 ×10⁶ L/mol | 3.48 ×10⁶ L/mol | 7.17 ×10⁶ L/mol | 195000 L/mol | 4.87 ×10⁶ L/mol | 3.4 ×10⁶ L/mol | 231000 L/mol | 4.76 ×10⁶ L/mol | 7.12 ×10⁶ L/mol | 4.56 ×10⁶ L/mol | 3.48 ×10⁶ L/mol | 4.33 ×10⁶ L/mol | 6.68 ×10⁶ L/mol | 8.9 ×10⁶ L/mol | 8.78 ×10⁶ L/mol | 3.93 ×10⁶ L/mol | 145000 L/mol | 5.32 ×10⁶ L/mol |  | CN1C(=O)c2c(c3c4ccccc4n([C@@H]4O[C@H](CO)[C@@H](O)[C@H](O)[C@H]4O)c3c3[nH]c4ccccc4c23)C1=O |
|  |  |  |  |  |  |  |  |  |  |  |  |  |  |  |  |  |  |  | 4 µM | CO[C@H]1[C@H](O)[C@@H](O)[C@H](n2c3c(Cl)cccc3c3c4c(c5c6cccc(Cl)c6[nH]c5c32)C(=O)NC4=O)O[C@@H]1CO [REBECCAMYCIN] |
